Assays:
Experiment in all cases: relative viability (nuclei count vs DMSO), 5 days (fraction); higher = more cells survive
[1] = tested on: HCC-78
Summary of the method: (§1)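 After 5 days of treatment, lung cancer cells in 1536-well plates were fixed and stained in a single step (final 0.05% Triton X-100, 1% formaldehyde, 1 ug/ml Hoechst) and their nuclei counted on 4× images. Treatment had been applied by pin tool the day after seeding as one drug alone or as a fixed anchor-drug dose with five library-drug doses (not always all listed) in √10 steps. Relative viability is the nuclei count of treated wells divided by that of vehicle wells, and values are medians of duplicate plates.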

[2] = tested on: SW 1573
Summary of the method: as §1

[3] = tested on: RERF-LC-KJ
Summary of the method: as §1

[4] = tested on: NCI-H1755
Summary of the method: as §1

[5] = tested on: NCI-H1975
Summary of the method: as §1

[6] = tested on: NCI-H2347
Summary of the method: as §1

[7] = tested on: PC-3 [JPC-3]
Summary of the method: as §1

[8] = tested on: NCI-H2126
Summary of the method: as §1

[9] = tested on: NCI-H647
Summary of the method: as §1

[10] = tested on: LC-2-ad
Summary of the method: as §1

[11] = tested on: HCC-15
Summary of the method: as §1

[12] = tested on: A-427
Summary of the method: as §1

[13] = tested on: SK-LU-1
Summary of the method: as §1

[14] = tested on: HOP-62
Summary of the method: as §1

[15] = tested on: NCI-H358
Summary of the method: as §1

[16] = tested on: LXF-289
Summary of the method: as §1

[17] = tested on: NCI-H1915
Summary of the method: as §1

[18] = tested on: NCI-H1792
Summary of the method: as §1

[19] = tested on: NCI-H2228
Summary of the method: as §1

[20] = tested on: NCI-H1734
Summary of the method: as §1

In the case of `O=c1cc(-c2cccc3c2Sc2ccccc2S3)oc(N2CCOCC2)c1` + C[C@@H](Oc1cc(-c2cnn(C3CCNCC3)c2)cnc1N)c1c(Cl)ccc(F)c1Cl [Crizotinib] (partner 1 µM), the relative viability ([1]; first compound 0.08 µM) is reported as 0.286, the relative viability ([1]; first compound 0.253 µM) is reported as 0.34 and the relative viability ([1]; first compound 0.8 µM) is reported as 0.291. It also gave a relative viability ([1]; first compound 2.53 µM) of 0.342, a relative viability ([1]; first compound 8 µM) of 0.34 and a relative viability ([2]; first compound 0.08 µM) of 0.76. For the same molecule, the relative viability ([2]; first compound 0.253 µM) was 0.852, the relative viability ([2]; first compound 0.8 µM) was 0.886 and the relative viability ([2]; first compound 2.53 µM) was 0.794. It also gave a relative viability ([2]; first compound 8 µM) of 0.849, a relative viability ([3]; first compound 0.08 µM) of 0.823 and a relative viability ([3]; first compound 0.253 µM) of 0.922. It also gave a relative viability ([3]; first compound 0.8 µM) of 0.871, a relative viability ([3]; first compound 2.53 µM) of 0.948 and a relative viability ([3]; first compound 8 µM) of 1.05. The relative viability ([4]; first compound 0.08 µM) was 0.961, the relative viability ([4]; first compound 0.253 µM) was 0.974 and the relative viability ([4]; first compound 0.8 µM) was 0.937. The relative viability ([4]; first compound 2.53 µM) was 0.878, the relative viability ([4]; first compound 8 µM) was 0.85 and the relative viability ([5]; first compound 0.08 µM) was 1.01. For the same molecule, the relative viability ([5]; first compound 0.253 µM) was 1.02, the relative viability ([5]; first compound 0.8 µM) was 0.922 and the relative viability ([5]; first compound 2.53 µM) was 0.837. The relative viability ([5]; first compound 8 µM) was 0.98, the relative viability ([6]; first compound 0.08 µM) was 0.654 and the relative viability ([6]; first compound 0.253 µM) was 0.394. The relative viability ([6]; first compound 0.8 µM) was 0.738, the relative viability ([6]; first compound 2.53 µM) was 0.769 and the relative viability ([6]; first compound 8 µM) was 0.711. It also gave a relative viability ([7]; first compound 0.08 µM) of 0.983, a relative viability ([7]; first compound 0.253 µM) of 1.01 and a relative viability ([7]; first compound 0.8 µM) of 1.03. For the same molecule, the relative viability ([7]; first compound 2.53 µM) was 0.971, the relative viability ([7]; first compound 8 µM) was 1.02 and the relative viability ([8]; first compound 0.08 µM) was 1.02. The relative viability ([8]; first compound 0.253 µM) was 1.09, the relative viability ([8]; first compound 0.8 µM) was 1.17 and the relative viability ([8]; first compound 2.53 µM) was 0.994. It also gave a relative viability ([8]; first compound 8 µM) of 1.04, a relative viability ([9]; first compound 0.08 µM) of 1.06 and a relative viability ([9]; first compound 0.253 µM) of 1.09. It also gave a relative viability ([9]; first compound 0.8 µM) of 0.949, a relative viability ([9]; first compound 2.53 µM) of 1.02 and a relative viability ([9]; first compound 8 µM) of 1.12. It also gave a relative viability ([10]; first compound 0.08 µM) of 0.392, a relative viability ([10]; first compound 0.253 µM) of 0.499 and a relative viability ([10]; first compound 0.8 µM) of 0.525. For the same molecule, the relative viability ([10]; first compound 2.53 µM) was 0.436, the relative viability ([10]; first compound 8 µM) was 0.509 and the relative viability ([11]; first compound 0.08 µM) was 0.952. It also gave a relative viability ([11]; first compound 0.253 µM) of 0.934, a relative viability ([11]; first compound 0.8 µM) of 1.01 and a relative viability ([11]; first compound 2.53 µM) of 0.857. It also gave a relative viability ([11]; first compound 8 µM) of 0.827, a relative viability ([12]; first compound 0.08 µM) of 0.988 and a relative viability ([12]; first compound 0.253 µM) of 0.661. For the same molecule, the relative viability ([12]; first compound 0.8 µM) was 1.02, the relative viability ([12]; first compound 2.53 µM) was 0.86 and the relative viability ([12]; first compound 8 µM) was 0.791. For the same molecule, the relative viability ([13]; first compound 0.08 µM) was 0.812, the relative viability ([13]; first compound 0.253 µM) was 1.04 and the relative viability ([13]; first compound 0.8 µM) was 1.14. It also gave a relative viability ([13]; first compound 2.53 µM) of 0.905, a relative viability ([13]; first compound 8 µM) of 0.849 and a relative viability ([14]; first compound 0.08 µM) of 0.842. It also gave a relative viability ([14]; first compound 0.253 µM) of 0.998, a relative viability ([14]; first compound 0.8 µM) of 0.989 and a relative viability ([14]; first compound 2.53 µM) of 0.653. The relative viability ([14]; first compound 8 µM) was 0.904, the relative viability ([15]; first compound 0.08 µM) was 0.629 and the relative viability ([15]; first compound 0.253 µM) was 0.634. The relative viability ([15]; first compound 0.8 µM) was 0.657, the relative viability ([15]; first compound 2.53 µM) was 0.466 and the relative viability ([15]; first compound 8 µM) was 0.574. For the same molecule, the relative viability ([16]; first compound 0.08 µM) was 0.839, the relative viability ([16]; first compound 0.253 µM) was 0.877 and the relative viability ([16]; first compound 0.8 µM) was 0.849. It also gave a relative viability ([16]; first compound 2.53 µM) of 0.8, a relative viability ([16]; first compound 8 µM) of 0.845 and a relative viability ([17]; first compound 0.08 µM) of 1.02. It also gave a relative viability ([17]; first compound 0.253 µM) of 0.987, a relative viability ([17]; first compound 0.8 µM) of 1.02 and a relative viability ([17]; first compound 2.53 µM) of 0.905. It also gave a relative viability ([17]; first compound 8 µM) of 0.847, a relative viability ([18]; first compound 0.253 µM) of 1.64 and a relative viability ([18]; first compound 0.8 µM) of 0.987. The relative viability ([18]; first compound 2.53 µM) was 0.896, the relative viability ([18]; first compound 8 µM) was 1.19 and the relative viability ([19]; first compound 0.08 µM) was 0.407. The relative viability ([19]; first compound 0.253 µM) was 0.506, the relative viability ([19]; first compound 0.8 µM) was 0.399 and the relative viability ([19]; first compound 2.53 µM) was 0.394. The relative viability ([19]; first compound 8 µM) was 0.354, the relative viability ([20]; first compound 0.08 µM) was 0.686 and the relative viability ([20]; first compound 0.253 µM) was 0.802. The relative viability ([20]; first compound 0.8 µM) was 0.9, the relative viability ([20]; first compound 2.53 µM) was 0.872 and the relative viability ([20]; first compound 8 µM) was 0.672.
